Source: ChEMBL document CHEMBL1201862, “PubChem BioAssay data set” (2004)
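Following 48 hours of exposure in 96-well plates, responses at five concentrations were used to interpolate endpoints linearly. GI50 marks 50% less growth.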 Active and inactive are the calls of the source. Cut-off read from the data, not from the text of the source: active = GI50 up to about 1.1 µM and inactive = higher.

Experiments:
Assay in all cases: NCI tumour cell line growth inhibition, 48 h
CCRF-CEM = tested on: CCRF-CEM
SF-268 = tested on: SF-268
SK-MEL-5 = tested on: SK-MEL-5
UO-31 = tested on: UO-31
M14 = tested on: M14
MCF7 = tested on: MCF7
NCI-H522 = tested on: NCI-H522
EKVX = tested on: EKVX
HCT-15 = tested on: HCT-15
NCI-H226 = tested on: NCI-H226
NCI-H23 = tested on: NCI-H23
DU-145 = tested on: DU-145
SNB-75 = tested on: SNB-75
PC-3 = tested on: PC-3
HCT-116 = tested on: HCT-116
KM12 = tested on: KM12
A549 = tested on: A549
HOP-62 = tested on: HOP-62
TK-10 = tested on: TK-10
LOX IMVI = tested on: LOX IMVI
NCI-H460 = tested on: NCI-H460
U-251 = tested on: U-251
SNB-19 = tested on: SNB-19
MDA-MB-231 = tested on: MDA-MB-231
RXF 393 = tested on: RXF 393
SW-620 = tested on: SW-620
MDA-N = tested on: MDA-N
COLO 205 = tested on: COLO 205
ACHN = tested on: ACHN
UACC-257 = tested on: UACC-257
K562 = tested on: K562
OVCAR-8 = tested on: OVCAR-8
A498 = tested on: A498
HCC 2998 = tested on: HCC 2998
NCI/ADR-RES = tested on: NCI/ADR-RES
MDA-MB-435 = tested on: MDA-MB-435
MOLT-4 = tested on: MOLT-4
OVCAR-4 = tested on: OVCAR-4
Hs-578T = tested on: Hs-578T
HT-29 = tested on: HT-29
UACC-62 = tested on: UACC-62
SF-295 = tested on: SF-295
HL-60 = tested on: HL-60
SK-MEL-2 = tested on: SK-MEL-2
RPMI-8226 = tested on: RPMI-8226
SK-OV-3 = tested on: SK-OV-3
SR = tested on: SR
CAKI-1 = tested on: CAKI-1
SK-MEL-28 = tested on: SK-MEL-28
786-0 = tested on: 786-0
OVCAR-5 = tested on: OVCAR-5
Malme-3M = tested on: Malme-3M
IGROV-1 = tested on: IGROV-1
BT-549 = tested on: BT-549
OVCAR-3 = tested on: OVCAR-3
SF-539 = tested on: SF-539
SN12C = tested on: SN12C

Compound: CCN1C/C(=C\c2ccc(Cl)cc2)c2nc(N)c(C#N)c(-c3ccc(Cl)cc3)c2C1
- GI50 (CCRF-CEM): > 100 µM (inactive)
- GI50 (SF-268): > 100 µM (inactive)
- GI50 (SK-MEL-5): > 100 µM (inactive)
- GI50 (UO-31): > 100 µM (inactive)
- GI50 (M14): > 100 µM (inactive)
- GI50 (MCF7): > 100 µM (inactive)
- GI50 (NCI-H522): > 100 µM (inactive)
- GI50 (EKVX): > 100 µM (inactive)
- GI50 (HCT-15): > 100 µM
- GI50 (NCI-H226): > 100 µM (inactive)
- GI50 (NCI-H23): > 100 µM (inactive)
- GI50 (DU-145): > 100 µM (inactive)
- GI50 (SNB-75): 60.3 µM (inactive)
- GI50 (PC-3): > 100 µM (inactive)
- GI50 (HCT-116): > 100 µM (inactive)
- GI50 (KM12): > 100 µM (inactive)
- GI50 (A549): > 100 µM (inactive)
- GI50 (HOP-62): > 100 µM (inactive)
- GI50 (TK-10): > 100 µM (inactive)
- GI50 (LOX IMVI): > 100 µM (inactive)
- GI50 (NCI-H460): > 100 µM (inactive)
- GI50 (U-251): > 100 µM (inactive)
- GI50 (SNB-19): > 100 µM (inactive)
- GI50 (MDA-MB-231): > 100 µM (inactive)
- GI50 (RXF 393): > 100 µM (inactive)
- GI50 (SW-620): > 100 µM (inactive)
- GI50 (MDA-N): > 100 µM (inactive)
- GI50 (COLO 205): > 100 µM (inactive)
- GI50 (ACHN): > 100 µM (inactive)
- GI50 (UACC-257): > 100 µM (inactive)
- GI50 (K562): > 100 µM (inactive)
- GI50 (OVCAR-8): > 100 µM (inactive)
- GI50 (A498): > 100 µM (inactive)
- GI50 (HCC 2998): > 100 µM (inactive)
- GI50 (NCI/ADR-RES): > 100 µM (inactive)
- GI50 (MDA-MB-435): > 100 µM (inactive)
- GI50 (MOLT-4): 67.9 µM (inactive)
- GI50 (OVCAR-4): > 100 µM (inactive)
- GI50 (Hs-578T): > 100 µM (inactive)
- GI50 (HT-29): > 100 µM (inactive)
- GI50 (UACC-62): > 100 µM (inactive)
- GI50 (SF-295): > 100 µM (inactive)
- GI50 (HL-60): > 100 µM (inactive)
- GI50 (SK-MEL-2): > 100 µM (inactive)
- GI50 (RPMI-8226): > 100 µM (inactive)
- GI50 (SK-OV-3): > 100 µM (inactive)
- GI50 (SR): 27.1 µM (inactive)
- GI50 (CAKI-1): > 100 µM (inactive)
- GI50 (SK-MEL-28): > 100 µM (inactive)
- GI50 (786-0): > 100 µM (inactive)
- GI50 (OVCAR-5): > 100 µM (inactive)
- GI50 (Malme-3M): > 100 µM (inactive)
- GI50 (IGROV-1): > 100 µM (inactive)
- GI50 (BT-549): > 100 µM (inactive)
- GI50 (OVCAR-3): > 100 µM (inactive)

Compound: Cc1ccc(N2C3=C(CC4=C2CC(C)(C)CC4=O)C(=O)CC(C)(C)C3)cc1
- GI50 (CCRF-CEM): > 100 µM (inactive)
- GI50 (SF-268): > 100 µM (inactive)
- GI50 (SK-MEL-5): > 100 µM (inactive)
- GI50 (UO-31): > 100 µM (inactive)
- GI50 (M14): > 100 µM (inactive)
- GI50 (MCF7): > 100 µM (inactive)
- GI50 (EKVX): > 100 µM (inactive)
- GI50 (HCT-15): > 100 µM
- GI50 (SF-539): > 100 µM (inactive)
- GI50 (NCI-H226): > 100 µM (inactive)
- GI50 (NCI-H23): > 100 µM (inactive)
- GI50 (DU-145): > 100 µM (inactive)
- GI50 (SNB-75): 27.6 µM (inactive)
- GI50 (PC-3): > 100 µM (inactive)
- GI50 (HCT-116): > 100 µM (inactive)
- GI50 (KM12): > 100 µM (inactive)
- GI50 (A549): > 100 µM (inactive)
- GI50 (HOP-62): > 100 µM (inactive)
- GI50 (TK-10): > 100 µM (inactive)
- GI50 (LOX IMVI): > 100 µM (inactive)
- GI50 (NCI-H460): > 100 µM (inactive)
- GI50 (U-251): > 100 µM (inactive)
- GI50 (SNB-19): > 100 µM (inactive)
- GI50 (MDA-MB-231): > 100 µM (inactive)
- GI50 (RXF 393): > 100 µM (inactive)
- GI50 (SW-620): > 100 µM (inactive)
- GI50 (MDA-N): > 100 µM (inactive)
- GI50 (COLO 205): > 100 µM (inactive)
- GI50 (ACHN): > 100 µM (inactive)
- GI50 (UACC-257): > 100 µM (inactive)
- GI50 (K562): > 100 µM (inactive)
- GI50 (OVCAR-8): > 100 µM (inactive)
- GI50 (A498): > 100 µM (inactive)
- GI50 (HCC 2998): > 100 µM (inactive)
- GI50 (NCI/ADR-RES): > 100 µM (inactive)
- GI50 (MDA-MB-435): > 100 µM (inactive)
- GI50 (MOLT-4): > 100 µM (inactive)
- GI50 (OVCAR-4): > 100 µM (inactive)
- GI50 (Hs-578T): 20.6 µM (inactive)
- GI50 (HT-29): > 100 µM (inactive)
- GI50 (UACC-62): > 100 µM (inactive)
- GI50 (SF-295): > 100 µM (inactive)
- GI50 (HL-60): > 100 µM (inactive)
- GI50 (RPMI-8226): > 100 µM (inactive)
- GI50 (SK-OV-3): > 100 µM (inactive)
- GI50 (SR): > 100 µM (inactive)
- GI50 (SN12C): > 100 µM (inactive)
- GI50 (CAKI-1): > 100 µM (inactive)
- GI50 (SK-MEL-28): > 100 µM (inactive)
- GI50 (786-0): > 100 µM (inactive)
- GI50 (OVCAR-5): > 100 µM (inactive)
- GI50 (Malme-3M): > 100 µM (inactive)
- GI50 (IGROV-1): > 100 µM (inactive)
- GI50 (BT-549): > 100 µM (inactive)
- GI50 (OVCAR-3): > 100 µM (inactive)
